The NIST ThermoML archive (doi:10.1021/je200457q)
± gives the expanded uncertainty stated by the source.

How the values were obtained:
[1] = excess molar enthalpy (molar enthalpy of mixing); xn = mol fraction of the nth substance listed; conditions: 101 kPa, Liquid, Flow calorimetry
[2] = 298.15 K; 101.33 kPa; Liquid; Vibrating tube method

C=CC(C)(O)CCC=C(C)C (configuration not stated) [3,7-dimethyl-1,6-octadien-3-ol] + CCCO
excess molar enthalpy [kcal/mol], [1]
Conditions	283.15 K	298.15 K	313.15 K	328.15 K
x1 = 0.048	-0.0404 ± 0.00191	-0.0392 ± 0.00191	-0.0428 ± 0.00191	-0.0411 ± 0.00167
x1 = 0.096	-0.0772 ± 0.00263	-0.0786 ± 0.00263	-0.0786 ± 0.00263	-0.0698 ± 0.00215
x1 = 0.188	-0.13 ± 0.00382	-0.136 ± 0.00406	-0.134 ± 0.00382	-0.112 ± 0.00335
x1 = 0.29	-0.153 ± 0.0043	-0.167 ± 0.00478	-0.162 ± 0.00454	-0.131 ± 0.00382
x1 = 0.383	-0.154 ± 0.0043	-0.168 ± 0.00478	-0.161 ± 0.00454	-0.132 ± 0.00382
x1 = 0.491	-0.142 ± 0.00406	-0.148 ± 0.0043	-0.142 ± 0.00406	-0.119 ± 0.00335
x1 = 0.584	-0.121 ± 0.00335	-0.124 ± 0.00359	-0.123 ± 0.00359	-0.0997 ± 0.00287
x1 = 0.693	-0.0884 ± 0.00263	-0.0908 ± 0.00263	-0.0937 ± 0.00263	-0.0777 ± 0.00215
x1 = 0.794	-0.0588 ± 0.00191	-0.0614 ± 0.00191	-0.0686 ± 0.00215	-0.0574 ± 0.00167
x1 = 0.894	-0.027 ± 0.000956	-0.0311 ± 0.0012	-0.0356 ± 0.0012	-0.0304 ± 0.000956
x1 = 0.945	-0.0139 ± 0.0012	-0.0163 ± 0.000478	-0.0191 ± 0.000956	-0.0165 ± 0.000717

C=CC(C)(O)CCC=C(C)C (configuration not stated) [3,7-dimethyl-1,6-octadien-3-ol] + CCO
excess molar enthalpy [kcal/mol], [1]
Conditions	283.15 K	298.15 K	313.15 K	328.15 K
x1 = 0.047	-0.0366 ± 0.00191	-0.0366 ± 0.00215	-0.0418 ± 0.00215	-0.0413 ± 0.00215
x1 = 0.094	-0.0741 ± 0.00263	-0.0805 ± 0.00287	-0.0839 ± 0.00287	-0.0798 ± 0.00263
x1 = 0.19	-0.143 ± 0.0043	-0.152 ± 0.00454	-0.157 ± 0.00454	-0.143 ± 0.00406
x1 = 0.29	-0.185 ± 0.00526	-0.198 ± 0.0055	-0.202 ± 0.00574	-0.18 ± 0.00502
x1 = 0.387	-0.191 ± 0.0055	-0.207 ± 0.00574	-0.212 ± 0.00598	-0.189 ± 0.00526
x1 = 0.481	-0.179 ± 0.00502	-0.19 ± 0.00526	-0.199 ± 0.00574	-0.177 ± 0.00502
x1 = 0.585	-0.152 ± 0.0043	-0.165 ± 0.00478	-0.17 ± 0.00478	-0.152 ± 0.0043
x1 = 0.695	-0.11 ± 0.00311	-0.121 ± 0.00359	-0.128 ± 0.00359	-0.114 ± 0.00335
x1 = 0.78	-0.0743 ± 0.00215	-0.0923 ± 0.00263	-0.101 ± 0.00287	-0.0875 ± 0.00263
x1 = 0.895	-0.0335 ± 0.0012	-0.0423 ± 0.00143	-0.0473 ± 0.00167	-0.0411 ± 0.00143
x1 = 0.946	-0.0165 ± 0.000956	-0.021 ± 0.000956	-0.0249 ± 0.0012	-0.0232 ± 0.000956

CCCCO [butan-1-ol]
Conditions	mass density [kg/m3]
[2]	805.71 ± 0.15

CCO [ethanol]
Conditions	mass density [kg/m3]
[2]	785.46 ± 0.15

CCCO [propan-1-ol]
Conditions	mass density [kg/m3]
[2]	799.56 ± 0.15

CC(C)O [propan-2-ol]
Conditions	mass density [kg/m3]
[2]	781.23 ± 0.15
